Data on nine molecules can be found in patent US10300070B2, “Metabolically-activated drug conjugates to overcome resistance in cancer therapy” (The Brigham and Women's Hospital, Inc., priority 2014, dated 2019).

What all share (type): cell-based
The subject of test [1] is MDA-MB-231 parent or DTC. As to the kind of experiment: Glucose uptake (2-NBDG) determined by FACS. The note with it: for suppression of glucose consumption (2-NBDG uptake): incubation 3 h, DTC compared to drug naïve parent cells; for 2-NBDG uptake after exogenously-added cytokines: MDA-MB-231 parent cells, 24 hours incubation, 50 ng/ml. As for the experimental part:
(§1) MDA-MB-231 (ATCC), MDA-MB-468 and 4T-1 mammary carcinoma cells (ATCC) were cultured in DMEM containing 10% Fetal Bovine Serum (FBS) at 37 C and 5% CO2. DU145 and DU145-TxR were provided by A. Mizokami^63 and cultured in DMEM containing 10% FBS, resistant line included 100 nM paclitaxel in the culture media. During treatments with chemotherapeutics, cells were grown to semi-confluence and treated with indicated concentrations of chemotherapy in serum-containing medium for indicated time points. When small molecule inhibitors were included in treatments, they were added simultaneously with chemotherapy. For siRNA gene knockdown, cells were transfected with silencer-select siRNA plasmids (Ambion, Invitrogen, Grand Island, N.Y.) pan-CD44(1) (s2682) panCD44(2) (s2681), siHIF1A (s6539) using lipofectamine 2000 (Invitrogen, Carlsbad Calif.) following manufacturer protocol and cultured for 72 hours prior to treatment. Scrambled siRNA was used as a control. For chemotherapy treatment experiments: Cancer cells were plated at a density of 0.5-1×10^5 cells/ml and allowed to adhere for 24-48 hr. When cells reached ˜70% confluency they were treated with cytotoxics at indicated concentrations for 24-48 hours and utilized for subsequent assays. For experiments in which a shorter incubation was used (i.e. 15 min-4 hours) fresh media was added 24 hours prior to addition of chemotherapy suspended to stock concentration in PBS. For generation of DTC: Cells were treated for 48 hours with chemotherapy. Following washes with PBS, adherent cells were trypsinized and re-plated at a density of 1.5-2×10^5 cells/ml and cultured in serum-containing medium. After 24 hours incubation, floating cells were removed and remaining cells were washed with 1× PBS and considered as chemotherapy-tolerant cells. A population of drug naïve parent cells were always cultured alongside DTC and fresh media was added at every interval that experimental population (DTC) received fresh media.
In vitro detection of glucose uptake was performed using 2-(N-7-Nitrobenz-2-oxa-1,3-diazol-4-yl)Amino)-2-Deoxyglucose (2-NBDG) (Invitrogen, Carlsbad Calif.), dissolved in DMSO to 50 mM. Cells were pre-treated with kinase inhibitors or vehicle for 3 hours in glucose- and phenol red-free media before addition of 50 μM 2-NBDG and subsequently read by FACS ex/em 488/535 nm. ROS was determined by pre-loading cells with CM-DCFDA (1 μM), washed 2 times with PBS and subsequently treated with H2O2 or vehicle; when kinase inhibitors were included in treatment, cells were first incubated with inhibitor for 3 hours prior to CM-DCFDA loading. Fluorescence was then determined by FACS ex/em 488/535 nm. For the following assays, cells were trypsinized and counted by Nexcelom cell counter (Lawrence, Mass.) prior to being subjected to analysis in order to achieve a quantitative value per cell: Reduced glutathione was determined using a colorimetric glutathione recycling system by DTNB following manufacturer protocol (Biovision, Milpitas Calif.). ATP analysis was performed using the ATP colorimetric analysis kit (Biovision) according to manufacturer protocol. Reductive stress was detected using the Enzo nitroreductase hypoxia kit (Enzo Life Sciences, Ann Arbor Mich.) following manufacturer protocol and visualized by fluorescent microscopy; a set of non-docetaxel-treated control cells loaded with fluorescent probe were compared against docetaxel-treated cells to derive a % redox stress increase which was calculated as fluorescence intensity of nitroreductase probe per cell and expressed as increase from vehicle. Protein synthesis was measured by two means 1. L-azidohomoalanine amino acid analog of methionine containing an azide moiety was added to cultured cells (parent or DTC) for 3 hours which is incorporated into proteins during active protein synthesis. […]

For test [2], the system named is MDA-MB-231 parent or DTC. As to the kind of experiment: Cell viability (MTS) and trypan blue exclusion of parent or DTC treated with doxorubicin. As for the experimental part: as §1
Following drug incubation, cells were washed and suspended in phenol red-free RPMI or DMEM and subsequently treated with MTS reagent using manufacturer protocol (Promega, Madison, Wis.). Trypan blue exclusion was used to validate experiments and evaluate % of dead cells performed by bright field microscopy.

Test [3] deals with CD44. The test can be described thus: Cell surface CD44 expression by FACS. The conditions noted are these: for CD44 expression after exogenous cytokine: MDA-MB-231, within 4 hours. Here is the method: DU145 and DU145-TxR were provided by A. Mizokami^63 and cultured in DMEM containing 10% FBS, resistant line included 100 nM paclitaxel in the culture media. During treatments with chemotherapeutics, cells were grown to semi-confluence and treated with indicated concentrations of chemotherapy in serum-containing medium for indicated time points. When small molecule inhibitors were included in treatments, they were added simultaneously with chemotherapy. […] Scrambled siRNA was used as a control. For chemotherapy treatment experiments: Cancer cells were plated at a density of 0.5-1×10^5 cells/ml and allowed to adhere for 24-48 hr. […] Following washes with PBS, adherent cells were trypsinized and re-plated at a density of 1.5-2×10^5 cells/ml and cultured in serum-containing medium. […] A population of drug naïve parent cells were always cultured alongside DTC and fresh media was added at every interval that experimental population (DTC) received fresh media.
Cells were cultured as indicated, removed from culture dishes with accutase stem-pro dissociation reagent (Invitrogen, Carlsbad Calif.) and fixed with 4% paraformaldehyde in PBS for 30 min at RT, washed twice with PBS and blocked in 10% goat serum (v/v). Whenever necessary, cells were permeabilized with 0.05% saponin in PBS. Cells were incubated with CD44-APC (BD biosciences, San Jose, Calif.) overnight at 4 C and analyzed by FACS (C6 Accuri cyomteters Inc Ann Arbor, Mich.), data analysis using FlowJo software (Tree Star Inc., Ashland Oreg.) and Accuri cFlow plus software to obtain and confirm mean fluorescent intensity (GNU.org).
(Flow cytometry measures light scatter and fluorescence of single cells or particles in a stream.)

Take `Oc1cccc(-c2nc(N3CCOCC3)c3oc4ncccc4c3n2)c1` [PI103, 3-(4-(4-Morpholinyl)pyrido[3′,2′:4,5]furo[3,2-d]pyrimidin-2-yl)phenol]: in test [1], the “suppression of glucose consumption (2-NBDG uptake)” value is “greater suppression of glucose consumption in the DTC subset compared to drug naïve parent cells”. In test [2] (DTC, co-incubated with dox, 48 h, PI103 5 μM, lonidamine 10 μM, KB-458 and KB-697 10 μM), the “response to dox in combination with inhibitor, DTC” value was “exquisitely responsive, overtly driven to cell death by dox in combination”. Further, the “response to dox in combination with inhibitor, parent cells” value in test [2] (drug naïve parent cells, co-incubated with dox, 48 h) is reported as “little synergism or a reversion of synergy”. In the case of “IL-8: recombinant cytokine purchased from Biolegend”, in test [1], the “2-NBDG uptake after exogenously-added cytokines” value is listed as “didn't observe any alterations in 2-NBDG uptake”. Regarding “GM-CSF: recombinant cytokine purchased from Biolegend”, the “2-NBDG uptake after exogenously-added cytokines” value in test [1] is recorded as “didn't observe any alterations in 2-NBDG uptake”. Besides, in test [3], the “CD44 expression after exogenous cytokine” value was “able to independently drive CD44 expression in a dose-dependent manner”.

On to `COc1cccc2c1C(=O)c1c(O)c3c(c(O)c1C2=O)C[C@@](O)(C(=O)CO)C[C@@H]3O[C@H]1C[C@H](N)[C@H](O)[C@H](C)O1` [doxorubicin, (1S,3S)-3-Glycoloyl-3,5,12-trihydroxy-10-methoxy-6,11-dioxo-1,2,3,4,6,11-hexahydro-1-tetracenyl 3-amino-2,3,6-trideoxy-α-L-lyxo-hexopyranoside], for which, in test [2] (72 h, DTC vs parent), the “response of DTC to doxorubicin (trypan blue exclusion)” value is on record as “DTC developed resistance”. Moreover, the “doxorubicin-mediated toxicity with PPP intermediates” value in test [2] (drug naïve parent cells co-treated with exogenous NADPH, GSH or ectopic G6PD expression) is recorded as “reduction of doxorubicin-mediated toxicity”. For “IL-6: recombinant cytokine purchased from Biolegend”, the “2-NBDG uptake after exogenously-added cytokines” value in test [1] was “didn't observe any alterations in 2-NBDG uptake”.

In the case of `CO[C@H]1C[C@@H]2CC[C@@H](C)[C@@](O)(O2)C(=O)C(=O)N2CCCC[C@H]2C(=O)O[C@H]([C@H](C)C[C@@H]2CC[C@@H](OCCO)[C@H](OC)C2)CC(=O)[C@H](C)/C=C(\C)[C@@H](O)[C@@H](OC)C(=O)[C@H](C)C[C@H](C)/C=C/C=C/C=C/1C` [Everolimus, 40-O-(2-hydroxyethyl)-rapamycin], the “suppression of glucose consumption (2-NBDG uptake)” value in test [1] is “greater suppression of glucose consumption in the DTC subset compared to drug naïve parent cells”. As for `Cc1ccc(S(=O)(=O)/C=C/C#N)cc1` [Bay-11], the “chemotherapy early-induced CD44 expression” value in test [3] (DTX 25 nM, 4 h, Bay-11 10 μM, neutralizing antibodies 2 μg/ml) is “modulated chemotherapy early-induced CD44 expression”. Turning to “IFN-γ: recombinant cytokine purchased from Biolegend”, the “2-NBDG uptake after exogenously-added cytokines” value in test [1] is “didn't observe any alterations in 2-NBDG uptake”. In addition, the “CD44 expression after exogenous cytokine” value in test [3] is listed as “able to independently drive CD44 expression in a dose-dependent manner”.

B1: IL-23: recombinant cytokine purchased from Biolegend (protein, UniProt Q9NPF7 20-189; P29460 23-328, looked up)
Interleukin-23 subunit alpha: RAVPGGSSPAWTQCQQLSQKLCTLAWSAHPLVGHMDLREEGDEETTNDVPHIQCGDGCDPQGLRDNSQFCLQRIHQGLIFYEKLLGSDIFTGEPSLLPDSPVGQLHASLLGLSQLLQPEGHHWETQQIPSLSPSQPWQRLLLRFKILRSLQAFVAVAARVFAHGAATLSP
Interleukin-12 subunit beta: IWELKKDVYVVELDWYPDAPGEMVVLTCDTPEEDGITWTLDQSSEVLGSGKTLTIQVKEFGDAGQYTCHKGGEVLSHSLLLLHKKEDGIWSTDILKDQKEPKNKTFLRCEAKNYSGRFTCWWLTTISTDLTFSVKSSRGSSDPQGVTCGAATLSAERVRGDNKEYEYSVECQEDSACPAAEESLPIEVMVDAVHKLKYENYTSSFFIRDIIKPDPPKNLQLKPLKNSRQVEVSWEYPDTWSTPHSYFSLTFCVQVQGKSKREKKDRVFTDKTSATVICRKNASISVRAQDRYYSSSWSEWASVPCS
Turning to B1, the “2-NBDG uptake after exogenously-added cytokines” value in test [1] is reported as “didn't observe any alterations in 2-NBDG uptake”. In addition, the “CD44 expression after exogenous cytokine” value in test [3] was “able to independently drive CD44 expression in a dose-dependent manner”.
